In brackets after ≈: the same amount, converted by molar mass.

The text below walks through data of US20110251238A1, “PPAR AGONIST COMPOSITIONS AND METHODS OF USE” (BIOPHARMED, priority 2008, published 2011).

For data set [1], the system named is KB3 (epitheloid lung cancer) cell lines. Nature of the data set: Cell growth inhibition (cytotoxicity), MTS assay, KB3 cell line. In kind it is cell-based. The procedure:
Cell growth inhibition was determined by the MTS assay; the number of viable cells were proportional to the extent of formazan production in the presence or absence of drugs. […]
Background: Formazan colour is commonly taken as a measure of viable cells.

In data set [2] the test system is MCF-7 (epithelial breast cancer). Nature of the data set: Growth inhibition, MTT colorimetric assay, MCF7. It counts as cell-based. To be noted: Homo sapiens, MCF7, 72 h; carcinoma; 3 days with drug; means of six values; unit inferred; read-out: IC50 MCF7. The essentials:
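Human tumour cell lines were exposed to compounds for 3 days. Proliferation inhibition was read by MTT colorimetric assay and expressed as IC50. Values are means of six determinations.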

For data set [3], the system named is orthotopic grafts of human glioblastoma cell lines. Nature of the data set: Orthotopic grafts of human glioblastoma cell lines in brains of nude mice, survival. It counts as in vivo. The settings on record: FIG. 1. The procedure:
Additional in vivo experiments were carried on nude mice. Briefly, orthotopic grafts of human glioblastoma cell lines were implanted into the brains of nude mice according to the general methodology of Branle et al., (2002) Cancer, 95, 641-655) and Lefranc et al., (2004) Clin. Can. Res., 10, 8250-8265. […] Results are shown in FIG. 1, illustrating the comparative activity of the PPAR agonist BPM18,708 and the reference drug Temodar™ (temozolomide) the only FDA approved drug for glioblastoma grade IV.

The next data set concerns caspases 8. Nature of the data set: Caspases 8 activation in HL60 cells (IEDT reagent). It counts as cell-based, human. The settings on record: 48 hours, 1 μM, 0.1 μM and 0.01 μM. The text has this:
7223, using standard commercially available diagnostic kits (Calbiochem, USA). Assay reagents used were DEVD for caspases 3/7, […] for caspases 8, and LEHD for caspases 9. Moreover, colchicine was used as reference compound that induces this activity of caspases.

Data set [4] concerns bloodstream forms of T. brucei and T. congolense. Nature of the data set: Trypanocidal activity in vitro, Alamar Blue assay. To be noted: 48 h total incubation. It counts as cell-based, Trypanosoma brucei and T. congolense. An outline of the steps:
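Bloodstream-form trypanosomes exposed to compounds in H2O for 24 h, then Alamar Blue added for a further 24 h (48 h total). Absorbance read at 550 nm with 630 nm reference; duplicate wells, three repeats. HL-60 cytotoxicity run alongside: 43 h plus 5 h dye.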
(The colour change of resazurin is a common sign of viable cells or microbes.)

The subject of another data set is Host. Nature of the data set: Growth inhibition, MTT colorimetric assay, Host. In kind it is cell-based. The settings on record: 72 h; 3 days with drug; means of six values; unit inferred; read-out: IC50 Host. An outline of the steps: (§1)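 Growth inhibition: cells cultured with drug 3 days, then MTT colorimetric readout. Cytotoxic activity given as IC50.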
The test system of data set [5] is BxPC3 (pancreatic cancer). Nature of the data set: Growth inhibition, MTT colorimetric assay, BxPC3. To be noted: Homo sapiens, BXPC-3, 72 h; carcinoma; 3 days with drug; means of six values; unit inferred; read-out: IC50 BxPC3. In kind it is cell-based, human. The essentials:
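Cells were cultured at 37° C with 5% CO2 in the presence of drug for 3 days. Proliferation was read by MTT absorbance at 570 nm. IC50 values are means of six distinct values.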

Data set [6] deals with PC3 (human prostate cancer). Nature of the data set: Growth inhibition, MTT colorimetric assay, PC3. In kind it is cell-based. The settings on record: Homo sapiens, 72 h; carcinoma; 3 days with drug; means of six values; unit inferred; read-out: IC50 PC3. An outline of the steps: as §1

Consider `Oc1ccc(CN(Cc2ccc(C(F)(F)F)cc2)Cc2ccc(O)c3ncccc23)c2cccnc12` [BPM18,708, 5,5′-(4-(trifluoromethyl)benzylazanediyl)bis(methylene)diquinolin-8-ol], for which the IC50 (as a rule, the concentration that gives 50% inhibition) in data set [1] (KB3, Table 3A, MTS assay, triplicate, read-out: KB3 IC50) amounted to 1 nM; in data set [2], 34 nM; with Host, 97 nM; in data set [5], 4300 nM; in data set [6] it was 66 nM. The “cytotoxic activity in words” value in data set [1] (KB3 cell line, structure-cytotoxicity discussion) is “most active analogue”. Besides, in data set [3], the “in vivo activity (survival) compared with Temodar” value is listed as “at least as active as Temodar™”. Also, in the data set on caspases 8, the “activation of caspases 8” value is given as “no effect”. Besides, in data set [4] (50% growth inhibition, read-out: GI50), the GI50 – broadly, the concentration giving 50% growth inhibition – is 310 ± 10 nM. Also, the MIC (as a rule, the least concentration at which growth counts as inhibited) in data set [4] (lowest concentration at which all cells were killed, read-out: MIC) worked out at 1 µM (≈ 0.489 µg/mL).
